Reference: patent US10226440B2, “Oral compositions comprising creatine” (Eddie O'Gorman Ltd, priority 2011, dated 2019)

Test: HPLC creatine levels after storage of other aqueous gels, jellies, suspensions and water controls
Type: physicochemical
Conditions: 10 g in 50 ml water, stored at 4 deg Celsius and room temperature, after one month
Procedure: A spectrophotometric scan of the colloidal creatine (10 mg ml^−1 dissolved in HPLC mobile phase), the CARG (1:15 dilution in HPLC mobile phase) and the HPLC mobile phase was performed to determine the appropriate detection wavelength for the HPLC assay. The scan was performed over a wavelength range from 190-950 nm. It was decided to use 220 nm as the detection wavelength.
Due to the viscous nature of the CARG it had to be diluted by a factor of 10 at the very least before samples could be injected onto the HPLC. In general a dilution factor of 1/15 was used in the analysis of the samples. The variation in peak area over the course of the experiment was not significant and gave a standard deviation of 1351126.18 (approximately equivalent to 0.13 mg ml^−1 creatine), see Tables 1 and 2.
Two aqueous gels, (A) and (B), were created containing colloidal creatine were made by mixing with water and heating to 55 deg Celsius:
This was stored in a 100 ml plastic dispensing container at room temperature. Creatine levels were measured after 3 months using the above HPLC method and found to have decreased by 22% at 4 deg Celsius and only 5% at room temperature.
Another oral product was made using colloidal creatine in standard commercially available jelly beans reconstituted in water. The concentrations of colloidal creatine per ml of reconstituted jelly bean were 0, 20, 50, 100 and 200 mg/ml. […]

loss of creatine content: 90%
Structure (SMILES): CN(CC(=O)O)C(=N)N [creatine, creatine (2-(methylguanidino)ethanoic acid)]
